Test [1] addresses T1, full-length bcMalT (EIIB and EIIC domains) (Bacillus cereus, UniProt Q63GK8).
T1 sequence (Q63GK8 1-545): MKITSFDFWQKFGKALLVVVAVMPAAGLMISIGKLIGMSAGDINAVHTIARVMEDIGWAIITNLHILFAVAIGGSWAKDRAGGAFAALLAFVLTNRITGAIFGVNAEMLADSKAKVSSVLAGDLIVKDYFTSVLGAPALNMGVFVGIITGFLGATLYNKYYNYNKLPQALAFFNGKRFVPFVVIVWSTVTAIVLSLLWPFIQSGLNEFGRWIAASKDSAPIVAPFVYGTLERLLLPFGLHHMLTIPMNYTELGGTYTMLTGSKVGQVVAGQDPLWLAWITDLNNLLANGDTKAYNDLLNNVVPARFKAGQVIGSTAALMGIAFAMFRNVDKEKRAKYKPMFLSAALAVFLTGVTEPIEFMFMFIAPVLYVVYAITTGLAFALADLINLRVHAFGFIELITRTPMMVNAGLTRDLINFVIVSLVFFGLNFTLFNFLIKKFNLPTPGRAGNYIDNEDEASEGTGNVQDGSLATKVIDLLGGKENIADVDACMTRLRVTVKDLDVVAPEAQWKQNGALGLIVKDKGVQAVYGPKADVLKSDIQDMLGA
The test can be described thus: scintillation proximity assay, competition with [3H]maltose. The format is binding. The conditions noted are these: 1 μM [3H]maltose, 4 mM LDAO, pH 7.5, 150 mM NaCl, 4 °C; homologous competition. (SPA uses beads or plates that emit light when radiolabelled molecules are held near them.)

For test [2], the target named is T1, full-length bcMalT (EIIB and EIIC domains). The test is described as above. The format is binding. The conditions noted are these: 1 μM [3H]maltose, 4 mM LDAO, pH 7.5, 150 mM NaCl, 4 °C.

In test [1], `OC[C@H]1O[C@H](O[C@H]2[C@H](O)[C@@H](O)C(O)O[C@@H]2CO)[C@H](O)[C@@H](O)[C@@H]1O` (some centres unmarked) [maltose] returned an IC50 of 4.5 ± 1.1 µM.

Take `OC[C@H]1O[C@@](CO)(O[C@H]2O[C@H](CO)[C@@H](O)[C@H](O)[C@H]2O)[C@@H](O)[C@@H]1O` [sucrose]: the “binding competition at 500 μM” value in test [2] is recorded as “No significant binding was observed for a number of other sugars tested, with the exception of sucrose”.

One may read the IC50 as the concentration that inhibits the measured activity by half. A lower IC50 goes with greater potency in that assay.

(Values after paper PMC4899283 (Structure (London, England : 1993), 2016).)
